# Laboratory results: PubChem BioAssay AID1963830 (Molecular Pharmacology Branch, DTP, NCI, 2024)
# Test system: 922993-354-T-J3-PDC complex spheroid viability
# Assay: Anticancer human tumor 922993-354-T-J3-PDC patient-derived endometrial carcinoma cell line growth inhibition [POLQ]
# Conditions: for IC50: curve of first compound; for viability, T/C: stronger effect = lower value
# Summary of the method: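 Patient-derived tumour cells were co-cultured with HUVEC and mesenchymal stem cells as multicellular spheroids at 37 °C. They were treated with POLQ inhibitors (novobiocin, ART-558, RP6685) alone or combined with other agents. Top concentrations were at or near clinical Cmax (otherwise 10 microM; SN-38 at 1 microM), decreasing in half-log steps.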
# [1] = second compound 0.0316 µM, first compound 0.00316 µM
# [2] = second compound 0.0316 µM, first compound 0.01 µM
# [3] = second compound 0.0316 µM, first compound 0.0316 µM
# [4] = second compound 0.0316 µM, first compound 0.1 µM
# [5] = second compound 0.1 µM, first compound 0.00316 µM
# [6] = second compound 0.1 µM, first compound 0.01 µM
# [7] = second compound 0.1 µM, first compound 0.0316 µM
# [8] = second compound 0.1 µM, first compound 0.1 µM
# [9] = second compound 0.316 µM, first compound 0.00316 µM
# [10] = second compound 0.316 µM, first compound 0.01 µM
# [11] = second compound 0.316 µM, first compound 0.0316 µM
# [12] = second compound 0.316 µM, first compound 0.1 µM
# [13] = second compound 1 µM, first compound 0.00316 µM
# [14] = second compound 1 µM, first compound 0.01 µM
# [15] = second compound 1 µM, first compound 0.0316 µM
# [16] = second compound 1 µM, first compound 0.1 µM
# [17] = second compound 3.16 µM, first compound 0.00316 µM
# [18] = second compound 3.16 µM, first compound 0.01 µM
# [19] = second compound 3.16 µM, first compound 0.0316 µM
# [20] = second compound 3.16 µM, first compound 0.1 µM
# [21] = second compound 10 µM, first compound 0.00316 µM
# [22] = second compound 10 µM, first compound 0.01 µM
# [23] = second compound 10 µM, first compound 0.0316 µM
# [24] = second compound 10 µM, first compound 0.1 µM
# [25] = second compound 0.0316 µM, first compound 0.316 µM
# [26] = second compound 0.0316 µM, first compound 1 µM
# [27] = second compound 0.1 µM, first compound 0.316 µM
# [28] = second compound 0.1 µM, first compound 1 µM
# [29] = second compound 0.316 µM, first compound 0.316 µM
# [30] = second compound 0.316 µM, first compound 1 µM
# [31] = second compound 1 µM, first compound 0.316 µM
# [32] = second compound 1 µM, first compound 1 µM
# [33] = second compound 3.16 µM, first compound 0.316 µM
# [34] = second compound 3.16 µM, first compound 1 µM
# [35] = second compound 10 µM, first compound 0.316 µM
# [36] = second compound 10 µM, first compound 1 µM
# 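Also: spheroids exposed to the agents for one week.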
# 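For viability, T/C in this document: 100% = DMSO vehicle control wells.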
structure (smiles),measurement,setting,value
CC[C@@]1(O)C(=O)OCc2c1cc1n(c2=O)Cc2cc3c(CN(C)C)c(O)ccc3nc2-1 + COC1C(OC(N)=O)C(O)C(Oc2ccc3c(O)c(NC(=O)c4ccc(O)c(CC=C(C)C)c4)c(=O)oc3c2C)OC1(C)C,IC50,second compound 0.0316 µM,74.9 nM
same,IC50,second compound 0.1 µM,70.8 nM
same,IC50,second compound 0.316 µM,84.1 nM
same,IC50,second compound 1 µM,70.3 nM
same,IC50,second compound 3.16 µM,70.7 nM
same,IC50,second compound 10 µM,78.3 nM
same,"viability, T/C","second compound 0.0316 µM, first compound 0.000316 µM",102%
same,"viability, T/C","second compound 0.0316 µM, first compound 0.001 µM",83%
same,"viability, T/C",[1],98.2%
same,"viability, T/C",[2],93.5%
same,"viability, T/C",[3],76%
same,"viability, T/C",[4],41.3%
same,"viability, T/C","second compound 0.1 µM, first compound 0.000316 µM",100%
same,"viability, T/C","second compound 0.1 µM, first compound 0.001 µM",101%
same,"viability, T/C",[5],102%
same,"viability, T/C",[6],98.8%
same,"viability, T/C",[7],75.3%
same,"viability, T/C",[8],39.1%
same,"viability, T/C","second compound 0.316 µM, first compound 0.000316 µM",100%
same,"viability, T/C","second compound 0.316 µM, first compound 0.001 µM",96.6%
same,"viability, T/C",[9],100%
same,"viability, T/C",[10],96.5%
same,"viability, T/C",[11],85.9%
same,"viability, T/C",[12],43.6%
same,"viability, T/C","second compound 1 µM, first compound 0.000316 µM",108%
same,"viability, T/C","second compound 1 µM, first compound 0.001 µM",98.7%
same,"viability, T/C",[13],96.9%
same,"viability, T/C",[14],94.6%
same,"viability, T/C",[15],73.3%
same,"viability, T/C",[16],39.2%
same,"viability, T/C","second compound 3.16 µM, first compound 0.000316 µM",93.9%
same,"viability, T/C","second compound 3.16 µM, first compound 0.001 µM",99%
same,"viability, T/C",[17],89.7%
same,"viability, T/C",[18],90.9%
same,"viability, T/C",[19],79%
same,"viability, T/C",[20],37.2%
same,"viability, T/C","second compound 10 µM, first compound 0.000316 µM",92.6%
same,"viability, T/C","second compound 10 µM, first compound 0.001 µM",76.9%
same,"viability, T/C",[21],88.3%
same,"viability, T/C",[22],84.4%
same,"viability, T/C",[23],84.6%
same,"viability, T/C",[24],40.7%
COc1cccc2c1C(=O)c1c(O)c3c(c(O)c1C2=O)CC(O)(C(=O)CO)CC3OC1CC(N)C(O)C(C)O1 (stereo unspecified) + Nc1ccc(C#CCN(C(=O)Cc2ncc(C(F)(F)F)cc2C(F)(F)F)c2ccc(F)cc2)nn1,IC50,second compound 0.0316 µM,5580 nM
same,IC50,second compound 0.1 µM,5440 nM
same,IC50,second compound 0.316 µM,5790 nM
same,IC50,second compound 1 µM,5390 nM
same,IC50,second compound 3.16 µM,2310 nM
same,IC50,second compound 10 µM,240 nM
same,"viability, T/C",[3],103%
same,"viability, T/C",[4],105%
same,"viability, T/C",[25],91.3%
same,"viability, T/C",[26],84.9%
same,"viability, T/C","second compound 0.0316 µM, first compound 3.16 µM",74.7%
same,"viability, T/C","second compound 0.0316 µM, first compound 10 µM",28.3%
same,"viability, T/C",[7],102%
same,"viability, T/C",[8],103%
same,"viability, T/C",[27],92.3%
same,"viability, T/C",[28],87.9%
same,"viability, T/C","second compound 0.1 µM, first compound 3.16 µM",74.3%
same,"viability, T/C","second compound 0.1 µM, first compound 10 µM",24.9%
same,"viability, T/C",[11],105%
same,"viability, T/C",[12],101%
same,"viability, T/C",[29],99.6%
same,"viability, T/C",[30],85.4%
same,"viability, T/C","second compound 0.316 µM, first compound 3.16 µM",71%
same,"viability, T/C","second compound 0.316 µM, first compound 10 µM",32.1%
same,"viability, T/C",[15],98.9%
same,"viability, T/C",[16],105%
same,"viability, T/C",[31],96.2%
same,"viability, T/C",[32],80.7%
same,"viability, T/C","second compound 1 µM, first compound 3.16 µM",72.1%
same,"viability, T/C","second compound 1 µM, first compound 10 µM",28.2%
same,"viability, T/C",[19],95.2%
same,"viability, T/C",[20],93.4%
same,"viability, T/C",[33],79.7%
same,"viability, T/C",[34],75.4%
same,"viability, T/C","second compound 3.16 µM, first compound 3.16 µM",39.9%
same,"viability, T/C","second compound 3.16 µM, first compound 10 µM",17.5%
same,"viability, T/C",[23],78.7%
same,"viability, T/C",[24],75.2%
same,"viability, T/C",[35],41.5%
same,"viability, T/C",[36],14.5%
same,"viability, T/C","second compound 10 µM, first compound 3.16 µM",38.1%
same,"viability, T/C","second compound 10 µM, first compound 10 µM",14.8%
CCc1c2c(nc3ccc(O)cc13)-c1cc3c(c(=O)n1C2)COC(=O)[C@]3(O)CC + Nc1ccc(C#CCN(C(=O)Cc2ncc(C(F)(F)F)cc2C(F)(F)F)c2ccc(F)cc2)nn1,IC50,second compound 0.0316 µM,27.9 nM
same,IC50,second compound 0.1 µM,26.2 nM
same,IC50,second compound 0.316 µM,31 nM
same,IC50,second compound 1 µM,32.2 nM
same,IC50,second compound 3.16 µM,22.1 nM
same,IC50,second compound 10 µM,14.4 nM
same,"viability, T/C",[1],99%
same,"viability, T/C",[2],91.1%
same,"viability, T/C",[3],45.5%
same,"viability, T/C",[4],20.1%
same,"viability, T/C",[25],18.8%
same,"viability, T/C",[26],26.7%
same,"viability, T/C",[5],100%
same,"viability, T/C",[6],88.8%
same,"viability, T/C",[7],43.3%
same,"viability, T/C",[8],17.9%
same,"viability, T/C",[27],19.8%
same,"viability, T/C",[28],24.8%
same,"viability, T/C",[9],104%
same,"viability, T/C",[10],92.2%
same,"viability, T/C",[11],50.3%
same,"viability, T/C",[12],20.3%
same,"viability, T/C",[29],16.8%
same,"viability, T/C",[30],26.6%
same,"viability, T/C",[13],102%
same,"viability, T/C",[14],88.9%
same,"viability, T/C",[15],52.4%
same,"viability, T/C",[16],18.4%
same,"viability, T/C",[31],17.7%
same,"viability, T/C",[32],25.9%
same,"viability, T/C",[17],95.6%
same,"viability, T/C",[18],76.3%
same,"viability, T/C",[19],39.7%
same,"viability, T/C",[20],17.4%
same,"viability, T/C",[33],18.2%
same,"viability, T/C",[34],27.7%
same,"viability, T/C",[21],87%
same,"viability, T/C",[22],63.9%
same,"viability, T/C",[23],16.1%
same,"viability, T/C",[24],16.3%
same,"viability, T/C",[35],20.1%
same,"viability, T/C",[36],29.6%
